Assays:
Assay in all cases: relative viability (nuclei count vs DMSO), 5 days (fraction); higher = more cells survive
[1] = compound: CC1=C(C=C(C=C1)NC(=O)C2=CC(=CC=C2)C(C)(C)C#N)NC3=CC4=C(C=C3)N=CN(C4=O)C [AZ628] + CS(=O)(=O)CCNCc1ccc(-c2ccc3ncnc(Nc4ccc(OCc5cccc(F)c5)c(Cl)c4)c3c2)o1 [Lapatinib] (partner 2 µM)
Method in brief: (§1)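 Relative viability is defined as nuclei in treated wells over nuclei in vehicle wells. Duplicate plates were run and medians reported. Lung cancer cell lines in 1536-well plates were dosed by pin tool one day after seeding, with one drug or with a fixed anchor-drug dose plus five library-drug doses (not always all listed) in √10 steps, and nuclei were counted after 5 days.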

[2] = compound: C1CC2=C(C1)C=C(C=C2)OC3=NC(=C4C(=N3)N(C=N4)CC5=CC=C(C=C5)C6=CC=CC=C6)N[C@@H](CC7=CC=CC=C7)CO [QS11] + COc1cccc2cc(-c3nc([C@H]4CC[C@H](C(=O)O)CC4)n4ncnc(N)c34)[nH]c12 [OSI-027] (partner 0.5 µM)
Method in brief: as §1

[3] = compound: C1CC2=C(C1)C=C(C=C2)OC3=NC(=C4C(=N3)N(C=N4)CC5=CC=C(C=C5)C6=CC=CC=C6)N[C@@H](CC7=CC=CC=C7)CO [QS11] + Cc1cc(Nc2cc(N3CCN(C)CC3)nc(Sc3ccc(NC(=O)C4CC4)cc3)n2)n[nH]1 [Tozasertib] (partner 0.1 µM)
Method in brief: as §1

[4] = compound: C1CC2=C(C1)C=C(C=C2)OC3=NC(=C4C(=N3)N(C=N4)CC5=CC=C(C=C5)C6=CC=CC=C6)N[C@@H](CC7=CC=CC=C7)CO [QS11] + N=C(N)NC(=N)NCCc1ccccc1 [Phenformin] (partner 250 µM)
Method in brief: as §1

LCLC-97TM1
relative viability ([1]; first compound 0.08 µM): 1.01 | relative viability ([1]; first compound 0.253 µM): 1.01 | relative viability ([1]; first compound 0.8 µM): 1.37 | relative viability ([1]; first compound 2.53 µM): 1.2 | relative viability ([1]; first compound 8 µM): 0.152 | relative viability ([2]; first compound 0.08 µM): 0.405 | relative viability ([2]; first compound 0.253 µM): 0.698 | relative viability ([2]; first compound 2.53 µM): 0.565 | relative viability ([2]; first compound 8 µM): 0.588 | relative viability ([3]; first compound 0.08 µM): 0.2 | relative viability ([3]; first compound 0.253 µM): 0.242 | relative viability ([3]; first compound 2.53 µM): 0.199 | relative viability ([3]; first compound 8 µM): 0.146 | relative viability ([4]; first compound 0.08 µM): 0.371 | relative viability ([4]; first compound 0.253 µM): 0.431 | relative viability ([4]; first compound 2.53 µM): 0.354 | relative viability ([4]; first compound 8 µM): 0.294
